# Values quoted from earlier work, collected in patent US10654893B2, “Self-assembling peptide compositions” (3-D MATRIX, LTD., priority 2014, dated 2020).
# Conditions: cited from earlier work
row,Compound,pKa
1,N[C@@H](CC(=O)O)C(=O)O [aspartic acid],3.71
2,N[C@@H](CCC(=O)O)C(=O)O [glutamic acid],4.15
